Earlier results, collected in patent US20230338375A1, “SUBSTITUTED PYRIDAZINONES FOR USE IN THE TREATMENT OF NEUROMUSCULAR DISEASES” (Edgewise Therapeutics, Inc., priority 2020, published 2023).

Test system: embryos from zebrafish model of DMD
Details: Li and Arner, PLoSONE, 2015

For `Cc1ccc(S(=O)(=O)NCc2ccccc2)cc1` [BTS, N-benzyl-p-tolyl-sulfonamide], the “protection from pathological muscle derangement” value is given as “protect muscles from pathological muscle derangement”.
